The values that follow come from ChEMBL document CHEMBL5614426 (J Med Chem, 2024).

For data set [1], the target named is T1, Histone-lysine N-methyltransferase NSD2 (Homo sapiens, UniProt O96028).
T1 sequence (O96028 whole entry): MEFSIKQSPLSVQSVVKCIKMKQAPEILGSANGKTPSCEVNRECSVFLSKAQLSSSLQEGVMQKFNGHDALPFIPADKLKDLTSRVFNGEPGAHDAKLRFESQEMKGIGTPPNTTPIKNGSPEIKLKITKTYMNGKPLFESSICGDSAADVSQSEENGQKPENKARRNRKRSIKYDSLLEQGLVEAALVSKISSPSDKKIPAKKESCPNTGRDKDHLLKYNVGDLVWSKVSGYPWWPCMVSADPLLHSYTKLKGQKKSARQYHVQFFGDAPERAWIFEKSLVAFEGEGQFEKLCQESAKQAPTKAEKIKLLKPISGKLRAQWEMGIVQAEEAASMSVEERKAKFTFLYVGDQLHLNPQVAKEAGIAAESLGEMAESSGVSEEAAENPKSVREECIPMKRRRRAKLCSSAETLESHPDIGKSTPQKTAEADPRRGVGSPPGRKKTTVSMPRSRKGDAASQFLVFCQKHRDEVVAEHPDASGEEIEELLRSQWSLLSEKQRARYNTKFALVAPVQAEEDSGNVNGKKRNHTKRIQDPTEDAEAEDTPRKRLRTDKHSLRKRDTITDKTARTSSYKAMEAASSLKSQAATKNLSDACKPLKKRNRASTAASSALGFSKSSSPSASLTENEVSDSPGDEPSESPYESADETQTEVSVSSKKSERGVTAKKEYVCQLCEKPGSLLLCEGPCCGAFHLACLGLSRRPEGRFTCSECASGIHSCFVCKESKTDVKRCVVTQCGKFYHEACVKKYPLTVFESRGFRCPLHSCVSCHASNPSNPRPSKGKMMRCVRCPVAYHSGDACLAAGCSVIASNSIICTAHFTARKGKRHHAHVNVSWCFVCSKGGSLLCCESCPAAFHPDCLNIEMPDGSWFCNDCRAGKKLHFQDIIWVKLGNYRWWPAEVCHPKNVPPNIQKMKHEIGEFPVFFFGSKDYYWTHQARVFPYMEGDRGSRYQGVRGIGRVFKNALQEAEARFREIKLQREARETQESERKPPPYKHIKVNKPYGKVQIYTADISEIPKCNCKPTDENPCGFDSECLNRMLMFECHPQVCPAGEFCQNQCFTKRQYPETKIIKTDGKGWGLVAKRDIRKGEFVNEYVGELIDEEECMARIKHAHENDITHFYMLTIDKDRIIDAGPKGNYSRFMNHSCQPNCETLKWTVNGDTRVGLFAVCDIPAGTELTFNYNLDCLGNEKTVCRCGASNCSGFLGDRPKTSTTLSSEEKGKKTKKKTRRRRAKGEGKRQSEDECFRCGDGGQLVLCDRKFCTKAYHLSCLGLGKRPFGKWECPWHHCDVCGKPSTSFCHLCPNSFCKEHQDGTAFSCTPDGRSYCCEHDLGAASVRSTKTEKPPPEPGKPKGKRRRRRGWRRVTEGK
The data set is described as follows: Inhibition of NSD2-SET domain (unknown origin).

Data set [2] can be described thus: MRT (0 to t) in mouse at 50 mg/kg, po measured upto 24 hrs by LC-MS/MS analysis. Type of data set: ADME, organism-based. Conditions: in vivo.
Data set [3] is described as follows: AUC (0 to infinity) in mouse at 1 mg/kg, iv measured upto 24 hrs by LC-MS/MS analysis. Type of data set: ADME, organism-based. The conditions noted are these: in vivo.
In data set [4] the target is DNA (cytosine-5)-methyltransferase 1 (Homo sapiens, UniProt P26358). The data set is described as follows: Inhibition of DNMT1 (unknown origin).
A short description of data set [5]: Cmax in mouse at 50 mg/kg, po measured upto 24 hrs by LC-MS/MS analysis. Conditions: in vivo. Type of data set: ADME, organism-based.
A short description of data set [6]: AUC (0 to infinity) in mouse at 50 mg/kg, po measured upto 24 hrs by LC-MS/MS analysis. Type of data set: ADME, organism-based. The conditions noted are these: in vivo.
Data set [7] can be described thus: Toxicity in female NU/NU mouse xenografted with human RS4-11 cells assessed as change in body weight at 50 mg/kg, po administered for 21 days. Type of data set: organism-based. The conditions noted are these: in vivo, 504 h, time 21 day. Background: Xenograft models place foreign cells or tissue in a host animal.
Data set [8] concerns the target Protein arginine N-methyltransferase 5 (Homo sapiens, UniProt O14744). The data set can be described thus: Inhibition of PRMT5 (unknown origin).
Data set [9] deals with Histone-lysine N-methyltransferase 2A (Homo sapiens, UniProt Q03164). The data set is described as follows: Inhibition of MLL1 (unknown origin).
Chain of Histone-lysine N-methyltransferase 2A (Q03164 1-2718 limits assumed): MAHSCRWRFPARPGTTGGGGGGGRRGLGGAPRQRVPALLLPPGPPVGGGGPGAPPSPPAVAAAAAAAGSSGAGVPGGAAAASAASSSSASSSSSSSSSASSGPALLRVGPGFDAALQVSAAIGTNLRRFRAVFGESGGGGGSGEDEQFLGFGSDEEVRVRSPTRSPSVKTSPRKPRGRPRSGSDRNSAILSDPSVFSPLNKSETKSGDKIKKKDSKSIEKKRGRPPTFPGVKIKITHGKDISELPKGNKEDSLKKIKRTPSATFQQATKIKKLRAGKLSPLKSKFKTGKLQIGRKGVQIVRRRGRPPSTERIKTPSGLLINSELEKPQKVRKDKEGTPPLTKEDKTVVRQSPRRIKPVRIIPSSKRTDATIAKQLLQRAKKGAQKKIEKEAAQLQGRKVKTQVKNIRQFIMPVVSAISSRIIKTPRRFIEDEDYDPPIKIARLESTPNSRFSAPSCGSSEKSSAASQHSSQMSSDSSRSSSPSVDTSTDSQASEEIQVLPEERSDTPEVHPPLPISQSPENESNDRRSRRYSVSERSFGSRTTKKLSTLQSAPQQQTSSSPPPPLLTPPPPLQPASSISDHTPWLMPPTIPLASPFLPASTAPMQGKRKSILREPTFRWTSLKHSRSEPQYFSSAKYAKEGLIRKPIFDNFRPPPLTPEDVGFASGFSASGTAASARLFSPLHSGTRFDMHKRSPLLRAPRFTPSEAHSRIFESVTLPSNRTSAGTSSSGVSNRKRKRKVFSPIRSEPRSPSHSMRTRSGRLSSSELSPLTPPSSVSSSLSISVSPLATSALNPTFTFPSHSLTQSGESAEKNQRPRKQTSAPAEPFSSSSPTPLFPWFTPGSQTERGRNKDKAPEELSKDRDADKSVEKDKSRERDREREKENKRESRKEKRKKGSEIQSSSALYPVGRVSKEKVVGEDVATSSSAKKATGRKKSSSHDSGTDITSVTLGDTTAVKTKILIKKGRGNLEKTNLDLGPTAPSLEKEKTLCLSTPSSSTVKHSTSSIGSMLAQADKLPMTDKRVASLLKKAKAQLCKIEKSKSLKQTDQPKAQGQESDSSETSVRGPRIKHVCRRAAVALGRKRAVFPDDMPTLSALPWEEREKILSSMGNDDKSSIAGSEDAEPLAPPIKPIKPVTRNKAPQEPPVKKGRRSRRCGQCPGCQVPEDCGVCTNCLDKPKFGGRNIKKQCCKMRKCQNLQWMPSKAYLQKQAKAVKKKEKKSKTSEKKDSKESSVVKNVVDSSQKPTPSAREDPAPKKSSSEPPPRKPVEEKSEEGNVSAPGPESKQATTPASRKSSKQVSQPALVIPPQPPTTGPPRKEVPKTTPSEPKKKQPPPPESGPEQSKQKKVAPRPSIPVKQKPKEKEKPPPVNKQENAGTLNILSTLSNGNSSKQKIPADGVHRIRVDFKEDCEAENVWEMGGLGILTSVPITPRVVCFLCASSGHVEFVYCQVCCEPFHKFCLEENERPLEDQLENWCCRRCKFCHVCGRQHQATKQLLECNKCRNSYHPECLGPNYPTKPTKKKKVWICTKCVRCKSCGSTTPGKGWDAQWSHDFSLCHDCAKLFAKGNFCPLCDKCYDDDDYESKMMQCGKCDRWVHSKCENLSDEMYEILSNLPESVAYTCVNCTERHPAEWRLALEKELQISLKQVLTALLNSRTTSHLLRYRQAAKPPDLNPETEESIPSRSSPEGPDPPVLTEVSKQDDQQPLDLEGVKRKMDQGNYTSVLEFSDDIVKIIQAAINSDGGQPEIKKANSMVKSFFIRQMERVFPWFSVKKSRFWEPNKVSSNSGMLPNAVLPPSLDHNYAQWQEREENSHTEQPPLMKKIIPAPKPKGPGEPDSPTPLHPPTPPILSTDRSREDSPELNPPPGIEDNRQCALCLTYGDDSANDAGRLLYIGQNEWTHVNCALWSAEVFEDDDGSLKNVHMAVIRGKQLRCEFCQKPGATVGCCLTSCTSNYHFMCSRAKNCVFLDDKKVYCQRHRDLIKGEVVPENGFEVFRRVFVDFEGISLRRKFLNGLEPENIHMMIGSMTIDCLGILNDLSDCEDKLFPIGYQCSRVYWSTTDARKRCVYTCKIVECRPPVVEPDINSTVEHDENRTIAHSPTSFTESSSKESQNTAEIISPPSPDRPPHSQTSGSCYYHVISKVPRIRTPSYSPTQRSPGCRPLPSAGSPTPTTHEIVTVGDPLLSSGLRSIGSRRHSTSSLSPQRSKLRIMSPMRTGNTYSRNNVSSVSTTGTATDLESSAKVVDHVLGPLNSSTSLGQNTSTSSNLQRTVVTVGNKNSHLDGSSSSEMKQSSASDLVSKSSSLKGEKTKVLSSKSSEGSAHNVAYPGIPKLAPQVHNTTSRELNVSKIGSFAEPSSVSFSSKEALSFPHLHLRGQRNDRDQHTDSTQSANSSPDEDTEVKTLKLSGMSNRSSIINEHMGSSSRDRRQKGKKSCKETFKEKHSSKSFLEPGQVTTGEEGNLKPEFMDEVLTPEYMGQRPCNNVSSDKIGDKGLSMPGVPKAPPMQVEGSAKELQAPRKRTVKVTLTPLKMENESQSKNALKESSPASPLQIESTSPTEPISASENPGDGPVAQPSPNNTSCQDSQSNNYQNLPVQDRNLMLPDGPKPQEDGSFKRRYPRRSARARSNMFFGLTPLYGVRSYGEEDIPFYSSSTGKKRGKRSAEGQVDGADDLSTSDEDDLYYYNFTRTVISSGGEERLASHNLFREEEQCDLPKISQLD
Chain of Histone-lysine N-methyltransferase 2A (Q03164 2719-3969 limits assumed): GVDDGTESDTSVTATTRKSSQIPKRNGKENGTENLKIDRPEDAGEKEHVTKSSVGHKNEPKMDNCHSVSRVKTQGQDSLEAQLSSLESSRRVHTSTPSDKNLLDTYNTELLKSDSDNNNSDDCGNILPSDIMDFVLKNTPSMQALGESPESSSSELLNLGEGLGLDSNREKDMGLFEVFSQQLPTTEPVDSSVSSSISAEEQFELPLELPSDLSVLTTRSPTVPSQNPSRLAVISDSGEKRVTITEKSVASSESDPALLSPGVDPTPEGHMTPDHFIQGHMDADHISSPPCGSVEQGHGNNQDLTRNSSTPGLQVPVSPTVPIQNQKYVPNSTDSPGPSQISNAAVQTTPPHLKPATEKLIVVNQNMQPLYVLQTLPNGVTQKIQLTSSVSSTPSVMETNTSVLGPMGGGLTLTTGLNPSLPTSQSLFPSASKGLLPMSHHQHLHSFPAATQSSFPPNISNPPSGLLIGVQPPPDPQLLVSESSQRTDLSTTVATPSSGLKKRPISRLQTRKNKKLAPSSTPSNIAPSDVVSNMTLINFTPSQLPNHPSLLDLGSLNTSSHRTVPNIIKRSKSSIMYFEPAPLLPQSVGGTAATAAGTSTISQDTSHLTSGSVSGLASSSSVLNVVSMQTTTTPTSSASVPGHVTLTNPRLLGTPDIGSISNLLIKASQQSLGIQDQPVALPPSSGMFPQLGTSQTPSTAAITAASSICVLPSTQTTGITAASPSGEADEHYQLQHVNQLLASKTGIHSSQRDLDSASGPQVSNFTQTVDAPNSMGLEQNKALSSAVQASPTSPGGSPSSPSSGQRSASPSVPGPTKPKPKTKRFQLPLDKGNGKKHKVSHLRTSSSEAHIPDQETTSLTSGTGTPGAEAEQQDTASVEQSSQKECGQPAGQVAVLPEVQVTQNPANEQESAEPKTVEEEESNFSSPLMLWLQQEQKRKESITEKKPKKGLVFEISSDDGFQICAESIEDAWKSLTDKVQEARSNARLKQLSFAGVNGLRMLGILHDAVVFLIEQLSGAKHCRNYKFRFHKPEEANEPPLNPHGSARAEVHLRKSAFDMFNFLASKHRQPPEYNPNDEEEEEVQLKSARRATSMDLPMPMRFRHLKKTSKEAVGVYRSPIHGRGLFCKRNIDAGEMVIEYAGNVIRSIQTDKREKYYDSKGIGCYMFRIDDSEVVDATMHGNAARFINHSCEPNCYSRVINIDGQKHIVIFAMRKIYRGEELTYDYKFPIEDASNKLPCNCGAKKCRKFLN
Data set [10] deals with Histone-lysine N-methyltransferase EZH2 (Homo sapiens, UniProt Q15910). The data set can be described thus: Inhibition of EZH2 (unknown origin).
Chain of Histone-lysine N-methyltransferase EZH2 (Q15910 whole entry): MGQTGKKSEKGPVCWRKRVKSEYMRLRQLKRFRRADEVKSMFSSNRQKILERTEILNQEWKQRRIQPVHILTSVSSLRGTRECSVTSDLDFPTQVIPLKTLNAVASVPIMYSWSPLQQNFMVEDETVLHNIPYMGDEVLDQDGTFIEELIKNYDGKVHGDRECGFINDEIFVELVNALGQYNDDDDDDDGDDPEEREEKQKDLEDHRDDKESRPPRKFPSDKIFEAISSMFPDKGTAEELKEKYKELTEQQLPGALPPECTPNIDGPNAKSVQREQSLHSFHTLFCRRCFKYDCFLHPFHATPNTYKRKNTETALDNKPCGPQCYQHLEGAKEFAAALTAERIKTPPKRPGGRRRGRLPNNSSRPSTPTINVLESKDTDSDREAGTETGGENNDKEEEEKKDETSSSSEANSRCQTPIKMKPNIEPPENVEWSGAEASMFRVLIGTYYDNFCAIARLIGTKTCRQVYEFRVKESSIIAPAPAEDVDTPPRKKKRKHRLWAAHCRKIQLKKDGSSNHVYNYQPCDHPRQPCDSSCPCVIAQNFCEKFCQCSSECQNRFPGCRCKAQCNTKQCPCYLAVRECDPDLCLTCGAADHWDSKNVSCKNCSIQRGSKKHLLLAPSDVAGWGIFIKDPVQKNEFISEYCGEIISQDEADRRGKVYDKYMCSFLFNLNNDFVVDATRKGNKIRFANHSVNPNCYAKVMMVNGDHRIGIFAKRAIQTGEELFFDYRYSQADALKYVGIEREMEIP
Data set [11] in a line: Cmax in mouse at 1 mg/kg, iv measured upto 24 hrs by LC-MS/MS analysis. Type of data set: ADME, organism-based. Conditions: in vivo.
The nature of data set [12]: Half life in mouse at 1 mg/kg, iv measured upto 24 hrs by LC-MS/MS analysis. Type of data set: ADME, organism-based. The conditions noted are these: in vivo.
Data set [13] in a line: MRT (0 to t) in mouse at 1 mg/kg, iv measured upto 24 hrs by LC-MS/MS analysis. Type of data set: ADME, organism-based. The conditions noted are these: in vivo.
Data set [14] is described as follows: Oral bioavailability in mouse at 50 mg/kg measured upto 24 hrs by LC-MS/MS analysis. Type of data set: ADME, organism-based. The conditions noted are these: in vivo.
The target in data set [15] is T2, Histone-lysine N-methyltransferase EHMT1 (Homo sapiens, UniProt Q9H9B1).
T2 sequence (Q9H9B1 whole entry): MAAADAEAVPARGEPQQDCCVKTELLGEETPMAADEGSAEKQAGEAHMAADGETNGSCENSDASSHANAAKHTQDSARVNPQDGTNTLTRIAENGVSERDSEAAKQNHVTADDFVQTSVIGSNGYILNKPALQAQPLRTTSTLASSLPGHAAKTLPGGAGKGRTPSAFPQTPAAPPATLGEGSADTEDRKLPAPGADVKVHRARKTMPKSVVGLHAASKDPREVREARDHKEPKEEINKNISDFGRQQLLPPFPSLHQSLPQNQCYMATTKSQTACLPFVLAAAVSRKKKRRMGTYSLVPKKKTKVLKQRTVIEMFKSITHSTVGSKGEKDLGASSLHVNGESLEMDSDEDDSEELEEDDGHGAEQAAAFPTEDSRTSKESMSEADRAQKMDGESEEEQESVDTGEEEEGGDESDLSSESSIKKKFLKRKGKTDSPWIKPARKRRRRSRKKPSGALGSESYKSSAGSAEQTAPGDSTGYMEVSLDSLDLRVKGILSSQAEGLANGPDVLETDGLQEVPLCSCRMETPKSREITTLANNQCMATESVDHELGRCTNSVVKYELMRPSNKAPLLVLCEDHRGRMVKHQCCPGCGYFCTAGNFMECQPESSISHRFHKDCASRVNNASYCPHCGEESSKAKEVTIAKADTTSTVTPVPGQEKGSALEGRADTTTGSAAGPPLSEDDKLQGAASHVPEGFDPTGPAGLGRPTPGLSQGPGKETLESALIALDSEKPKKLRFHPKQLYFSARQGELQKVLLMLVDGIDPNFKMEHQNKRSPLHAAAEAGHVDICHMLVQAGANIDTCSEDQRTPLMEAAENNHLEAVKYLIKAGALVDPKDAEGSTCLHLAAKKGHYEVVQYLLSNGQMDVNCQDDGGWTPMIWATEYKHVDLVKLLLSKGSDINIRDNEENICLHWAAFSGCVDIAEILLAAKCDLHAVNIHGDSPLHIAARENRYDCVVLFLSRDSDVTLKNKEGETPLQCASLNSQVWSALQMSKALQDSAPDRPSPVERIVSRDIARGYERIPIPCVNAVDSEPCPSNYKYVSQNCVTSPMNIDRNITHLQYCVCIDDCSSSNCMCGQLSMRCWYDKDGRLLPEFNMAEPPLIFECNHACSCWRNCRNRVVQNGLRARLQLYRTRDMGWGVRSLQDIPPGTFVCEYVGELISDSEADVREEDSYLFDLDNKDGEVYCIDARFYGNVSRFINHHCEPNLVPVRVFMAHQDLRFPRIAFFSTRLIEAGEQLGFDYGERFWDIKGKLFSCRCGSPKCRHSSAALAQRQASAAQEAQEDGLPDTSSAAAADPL
The data set can be described thus: Inhibition of GLP (unknown origin).

Data set [16] addresses Protein arginine N-methyltransferase 8 (Homo sapiens, UniProt Q9NR22). The data set is described as follows: Inhibition of PRMT8 (unknown origin).
Data set [17] can be described thus: Volume of distribution at steady state in mouse at 1 mg/kg, iv measured upto 24 hrs by LC-MS/MS analysis. The conditions noted are these: in vivo, read-out: Vdss. Type of data set: ADME, organism-based.
Data set [18] can be described thus: Half life in mouse at 50 mg/kg, po measured upto 24 hrs by LC-MS/MS analysis. Type of data set: ADME, organism-based. Conditions: in vivo.
Data set [19] in a line: AUC (0 to last) in mouse at 50 mg/kg, po measured upto 24 hrs by LC-MS/MS analysis. Type of data set: ADME, organism-based. The conditions noted are these: in vivo.
The nature of data set [20]: AUC (0 to last) in mouse at 1 mg/kg, iv measured upto 24 hrs by LC-MS/MS analysis. Type of data set: ADME, organism-based. Conditions: in vivo.
The target in data set [21] is Histone-lysine N-methyltransferase 2B (Homo sapiens, UniProt Q9UMN6). The data set can be described thus: Inhibition of MLL4 (unknown origin).
For data set [22], the target named is T3, Histone-arginine methyltransferase CARM1 (Homo sapiens, UniProt Q86X55).
T3 sequence (Q86X55 whole entry): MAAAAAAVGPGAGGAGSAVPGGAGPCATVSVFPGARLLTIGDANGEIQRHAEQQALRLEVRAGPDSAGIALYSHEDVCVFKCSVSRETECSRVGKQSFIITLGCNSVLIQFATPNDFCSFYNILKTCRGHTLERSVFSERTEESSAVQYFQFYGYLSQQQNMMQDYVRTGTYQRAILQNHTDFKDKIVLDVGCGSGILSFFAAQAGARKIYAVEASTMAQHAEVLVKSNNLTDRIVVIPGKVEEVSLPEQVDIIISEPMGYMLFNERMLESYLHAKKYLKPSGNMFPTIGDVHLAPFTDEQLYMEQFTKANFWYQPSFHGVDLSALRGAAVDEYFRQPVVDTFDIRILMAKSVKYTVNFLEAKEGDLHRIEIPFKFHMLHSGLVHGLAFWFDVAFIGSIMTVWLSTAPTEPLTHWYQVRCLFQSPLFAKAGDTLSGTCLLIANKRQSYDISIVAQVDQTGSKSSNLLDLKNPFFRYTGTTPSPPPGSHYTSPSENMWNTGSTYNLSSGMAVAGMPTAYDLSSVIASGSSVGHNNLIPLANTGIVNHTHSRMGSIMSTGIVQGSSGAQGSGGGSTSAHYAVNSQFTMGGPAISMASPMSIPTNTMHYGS
The data set is described as follows: Inhibition of PRMT4 (unknown origin).

Chain of Protein arginine N-methyltransferase 8 (Q9NR22 whole entry): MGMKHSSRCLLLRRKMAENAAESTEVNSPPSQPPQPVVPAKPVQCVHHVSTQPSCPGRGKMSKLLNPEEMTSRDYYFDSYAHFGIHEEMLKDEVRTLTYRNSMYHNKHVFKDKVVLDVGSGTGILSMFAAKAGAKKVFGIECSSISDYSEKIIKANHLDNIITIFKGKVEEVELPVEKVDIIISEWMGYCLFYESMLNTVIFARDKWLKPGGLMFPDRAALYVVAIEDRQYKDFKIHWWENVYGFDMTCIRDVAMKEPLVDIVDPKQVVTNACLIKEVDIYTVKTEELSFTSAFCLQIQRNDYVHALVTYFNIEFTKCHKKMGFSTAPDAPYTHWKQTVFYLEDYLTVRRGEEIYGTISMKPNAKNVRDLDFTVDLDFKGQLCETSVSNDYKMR

In the case of `COc1cc(F)c(-c2cc(Cn3cnc4c(N)ncnc43)c(N3CCC[C@](N)([C@H](O)C(F)F)C3)cn2)cc1F`, the IC50 (as a rule, the concentration needed to halve the response being measured) in data set [1] was below 0.1 µM.
For `COc1cc2c(NC3CCN(C(C)C)CC3)nc(C#N)nc2cc1OCCCN1CCOCC1`, the MRT last (as a rule, a mean duration of stay, worked out from the concentration-time curve) at 24 h in data set [2] came out at 5.3 h; in [13], 6.12 h. Also, the AUC (as a rule, the area under the concentration-time curve, a measure of exposure) in [3] was 134 ng·h/mL; in data set [6], 1760 ng·h/mL. In addition, the IC50 in data set [4], in data set [8], in [9], in [10], in [15] and in [16] was above 10 µM in each case. The IC50 is above 10 µM in data set [21] and 8.96 µM in data set [22]. In addition, the figures for the Cmax in [5] and in data set [11] were 1160 nM and 280 nM, respectively. Further, the Activity entry in data set [7] is “Non-Toxic”. In data set [12], this compound showed a t1/2 of 8 h. The bioavailability (as a rule, the share of a dose that reaches the circulation, judged against a reference dose that is usually intravenous) in data set [14] worked out at 27.3%. Moreover, the Vd in [17] is 46 L/kg. In addition, the half-life (in general, the time needed for the level to fall by half in the phase considered) in [18] was 6.35 h. Further, the results for the AUClast in data set [19] and in [20] were 1694.02 ng·h/mL and 123.9 ng·h/mL, respectively.
